Tests used:
[1] = tested on: brain opiate receptor; conditions: in vitro; cited from earlier work
[2] = tested on: Male Swiss Webster mice; conditions: mouse, in vivo; for Reaction times with naloxone: ip
[3] = tested on: mammals; experiment: Analgesic potency, addictiveness and side-effects with morphine sulfate as standard of reference; format: in vivo
[4] = tested on: mice; experiment: Reaction time in mice after intravenous injection in the tail vein; format: in vivo; conditions: 50 ng iv tail vein, 90 minutes
Experimental: 50 ng of Substance P was administered peripherally to mice by intravenous injection in the tail vein. The mean reaction time at 90 minutes was 6.2 seconds.

[5] = tested on: mice; experiment: Hot plate analgesiometer in mice, intraperitoneal injection; format: in vivo
Experimental: The drug was administered by intraperitoneal injection, employing the solution prepared according to Example 1. Three groups of mice, 5 animals per group, received a single injection ip of Substance P or vehicle alone. Mice weighed 30 grams each. Group 1: Substance P, 5 microgram per mouse ([…])([…]) Group 2: Substance P, 1 microgram per mouse (1 × 10^-6 g)(33.3 microgram/kg) Group 3: Vehicle alone
On the day before the animals were to be given the drug, each animal was tested on the hot plate analgesiometer for its reaction time (the time in seconds after placing on the hot plate until the animal jumps). The next day animals were given the injection and then tested on the analgesiometer at times of 30, 60, 90, 120 and 150 minutes after the injection. From the reaction times observed the control reaction time determined the previous day was subtracted. The reaction times given in the table below are the increase in reaction time (over the control value) due to the injection.

[6] = tested on: human blister base; conditions: isolated, not pure compound per the patent; cited from earlier work
[7] = tested on: test animals; experiment: Time course of analgesia in test animals; format: in vivo
Description: The dosage rate is selected so as to provide analgesia for a useful minimum period of time, while at the same time avoiding any impact of sudden severe lowering of blood pressure.

[8] = tested on: anaesthetized rats; conditions: injected into anaesthetized rats; cited from earlier work
[9] = tested on: blood pressure; conditions: intravenous administration described in the prior art; cited from earlier work
[10] = cited from earlier work

Lipotropin C-Fragment: the entire 61-91 LPH fragment, extracted from pig pituitary (YGGFMTSEKSQTPLVTLFKNAIVKNAHKKGQ; Beta-endorphin; UniProt P01192 237-267, looked up)
Potency relative to methionine enkephalin in inhibiting binding of naloxone and dihydromorphine [1]: approximately thirty

CN1CC[C@]23c4c5ccc(O)c4O[C@H]2[C@@H](O)C=C[C@H]3[C@H]1C5.O=S(=O)(O)O [MS, morphine sulfate, reference compound]
Reaction times with naloxone [2]: not increased during the first measurement, but gradually became longer

CSCC[C@H](NC(=O)[C@H](CC(C)C)NC(=O)CNC(=O)[C@H](Cc1ccccc1)NC(=O)[C@H](Cc1ccccc1)NC(=O)[C@H](CCC(N)=O)NC(=O)[C@H](CCC(N)=O)NC(=O)[C@@H]1CCCN1C(=O)[C@H](CCCCN)NC(=O)[C@@H]1CCCN1C(=O)[C@@H](N)CCCNC(=N)N)C(N)=O [Substance P, H-Arg-Pro-Lys-Pro-Gln-Gln-Phe-Phe-Gly-Leu-Met-NH2]
Addictiveness ([3]; in vivo): nonaddictive
Side-effects ([3]; in vivo): relatively free from significant side-effects
Potency as an analgesic relative to morphine sulfate ([3]; morphine sulfate as standard of reference): about 450 times
Mean reaction time [4]: 6.2 s
Reaction Time Over Controls ([5]; Group 1: (5 × 10^-9 g)(0.167 microgram/kg) ip, 30 min): 7.04 ± 1.91 s
Reaction Time Over Controls ([5]; Group 1: (5 × 10^-9 g)(0.167 microgram/kg) ip, 60 min): 6.56 ± 2.4 s
Reaction Time Over Controls ([5]; Group 1: (5 × 10^-9 g)(0.167 microgram/kg) ip, 90 min): 8.36 ± 3.2 s
Reaction Time Over Controls ([5]; Group 1: (5 × 10^-9 g)(0.167 microgram/kg) ip, 120 min): 6.24 ± 1.4 s
Reaction Time Over Controls ([5]; Group 1: (5 × 10^-9 g)(0.167 microgram/kg) ip, 150 min): 3.84 ± 2.12 s
Reaction Time Over Controls ([5]; Group 2: 1 microgram per mouse (33.3 microgram/kg) ip, 30 min): 7.6 ± 2.68 s
Reaction Time Over Controls ([5]; Group 2: 1 microgram per mouse (33.3 microgram/kg) ip, 60 min): 11.44 ± 3.49 s
Reaction Time Over Controls ([5]; Group 2: 1 microgram per mouse (33.3 microgram/kg) ip, 90 min): 10.96 ± 1.33 s
Reaction Time Over Controls ([5]; Group 2: 1 microgram per mouse (33.3 microgram/kg) ip, 120 min): 8.2 ± 3.18 s
Reaction Time Over Controls ([5]; Group 2: 1 microgram per mouse (33.3 microgram/kg) ip, 150 min): 4.08 ± 1.26 s
Increases in reaction times compared to the vehicle controls (Student t test) ([5]; groups 1 and 2, 150 min): not statistically significant
Increases in reaction times compared to the vehicle controls (Student t test) ([5]; groups 1 and 2, all times except 150 min): significant
Reaction times compared to those of controls [2]: significantly increased
Reaction times with naloxone [2]: not increased during the first measurement, but gradually became longer
Algogen (pain-producing) activity [6]: very potent algogen
Commencement of analgesia following administration [7]: 20 to 30 min
Time to peak effectiveness of analgesia [7]: about 1.5 hours
Sialogogic activity [8]: stimulated salivary secretion
Duration of sharp lowering of blood pressure [9]: ≤ 7 min

Tyr-Gly-Gly-Phe-Met [Met-Enk]
Analgesic activity in vivo [10]: does not exhibit significant analgesic activity in vivo
